One data set deals with HT-29. The data set is described as follows: 15-day clonogenicity experiment, treatment prior to versus after irradiation (Example 7). The class given is cell-based, human. The settings on record: treatment prior to irradiation (A) versus untreated controls (C) and treatment after irradiation (B); for formation of colonies: 20-100 μM, 48 h. The procedure:
(§1) Human cancer cell lines (HT-29; ATCC number HTB-38) are cultured in Dulbecco's Modified Eagle's Medium (DMEM, product number D 5030, Sigma Chemie AG, Buchs, Switzerland) supplemented with 10% heat-inactivated fetal calf serum (FBS), 1 g/L D-glucose, 3.7 g/L sodium bicarbonate and 0.1 g/L penicillin-streptomycin (all additives from Life Technologies Inc., Grand Island, NY). The cells are cultured at 37° C. in a humidified atmosphere with a 5% CO2 content and kept in the exponential growth phase by twice weekly subculturing. The cultures are tested for mycoplasma infection using the MycoAlert Detection Kit (product number LT07-118, Cambrex, Verviers, Belgium).
The cytotoxic effect of treatment of the cells with DHA, EPA, MCTs and iron on irradiation of the cells at 0 Gy, 2 Gy, 4 Gy or 6 Gy is examined in a 15-day clonogenicity experiment.
Firstly, the influence of 0 μM, 20 μM, 50 μM or 100 μM DHA or EPA in the case of treatment of the cells (A) prior to the irradiation compared to the treatment of the cells after the irradiation (B) is determined. Cells untreated with EPA or DHA, which are also irradiated, serve as a control (C).
In the case of the cells which are treated with EPA or DHA prior to the irradiation (A), the culture medium of the cells is replaced with medium containing the relevant concentrations (0 μM, 20 μM, 50 μM or 100 μM) of DHA or EPA. The cells are cultured for 48 hours in the medium, and then irradiated with an individual radiation dose of 0 Gy (control), 2 Gy, 4 Gy or 6 Gy in an X-ray 6 MV instrument.
In the case of cells which are treated with EPA or DHA after the irradiation (B) and in the case of the control cells (C), a media change is carried out 48 hours prior to the irradiation; the cells receive normal culture medium. After 48 hours, the cells are irradiated with an individual radiation dose of 0 Gy (control), 2 Gy, 4 Gy or 6 Gy in an X-ray 6 MV instrument.
After the irradiation, the cells are then detached from the culture vessel by means of trypsinization (1× trypsin-EDTA, Life Technologies Inc., Grand Island, NY), resuspended and counted. The cells are subsequently serially diluted according to a standard protocol and seeded in 100×20 mm cell culture dishes containing 10 mL of medium in a cell count which leads to the formation of about 200 colonies. Cells of groups A and C are seeded in normal culture medium, and cells of group B are seeded in medium containing the relevant concentrations (0 μM, 20 μM, 50 μM or 100 μM) of DHA or EPA.
After 48 hours, all cells are subjected to a media change, after which all cells are cultured in normal culture medium.
After a total of 14 days of incubation at 37° C., the vessels are washed with phosphate-buffered saline (PBS, Life Technologies Inc., Grand Island, N.Y.), fixed, and stained with a 0.5% crystal violet solution in methanol/glacial acetic acid (3:1, v/v). The surviving cell fraction is calculated with reference to the untreated controls (S/S0).

The test system of data set [1] is HT-29 colorectal cancer cells. The data set is described as follows: 15-day clonogenicity experiment, pretreatment before irradiation (Example 6). Format: cell-based, human. The settings on record: 48 h pretreatment with 20 μM to 100 μM, irradiation 2 to 6 Gy. The procedure: as §1, with “HT-29 colorectal” for “Human”, “cells (ATCC” for “cell lines (HT-29; ATCC”, “were” for “are”, “N.Y.).” for “NY).”
The cytotoxic effect of a two-day (48 hours) pretreatment of HT-29 cells with 0 μM, 20 μM, 50 μM or 100 μM DHA or EPA on irradiation of the cells at 0 Gy, 2 Gy, 4 Gy or 6 Gy was examined in a 15-day clonogenicity experiment.
To this end, the culture medium of the cells was replaced with medium which contained the relevant concentrations (0 μM, 20 μM, 50 μM or 100 μM) of DHA or EPA. Controls were cultured in medium without EPA and without DHA. […] The cells were then detached from the culture vessel by means of trypsinization (1× trypsin-EDTA, Life Technologies Inc., Grand Island, N.Y.), resuspended and counted. […] The surviving cell fraction was calculated with reference to the untreated controls (S/S0).

The subject of data set [2] is colorectal cancer cell lines, breast cancer cell lines and lung cancer cell lines. Kind of data set: Clonogenicity experiment with further tumor cell lines, pre- versus posttreatment (Example 7). The class given is cell-based. The settings on record: irradiation. As to the method: The experiment is carried out analogously with further tumor cell lines (colorectal cancer cell lines, breast cancer cell lines and lung cancer cell lines).

Consider two compounds from patent publication US9675574B2, “Composition comprising a combination of DHA and EPA for administration prior to commencement of chemotherapy” (Fresenius Kabi Deutschland GmbH, priority 2010, dated 2017).

Molecules are shown by their SMILES.

For `CC/C=C\C/C=C\C/C=C\C/C=C\C/C=C\C/C=C\CCC(=O)O` [DHA, (4Z,7Z,10Z,13Z,16Z,19Z)-docosa-4,7,10,13,16,19-hexaenoic acid], in the data set on HT-29, the “size of colonies formed” value is listed as “colonies formed are smaller”, the “surviving cell fraction (S/S0)” value is listed as “also smaller” and the formation of colonies entry is recorded as “fewer colonies”. The “effect on survival of HT-29 cells in combination with irradiation” value in data set [1] is on record as “synergistic effect”. Further, the “cytotoxic effect of pretreatment compared to posttreatment” value in data set [2] is given as “greater cytotoxic effect”.
Taken in the same sequence, the figures for `CC/C=C\C/C=C\C/C=C\C/C=C\C/C=C\CCCC(=O)O` [EPA, (5Z,8Z,11Z,14Z,17Z)-eicosa-5,8,11,14,17-pentaenoic acid] were “colonies formed are smaller”, “also smaller”, “fewer colonies”, “synergistic effect” and “greater cytotoxic effect”.
